Data set [1] can be described thus: In vivo pharmacokinetics test in mice. As to conditions: mouse, plasma, po; female Balb/c mice, intragastric, 3 mg/kg; read-out: Bioavailability F. On the procedure:
Female Balb/c mice were used as test animals. The compound of formula (I) was administrated intravenously and intragastrically to mice, then the drug concentrations in the plasma at different time points were determined by the LC/MS/MS method. The in vivo pharmacokinetic behavior of the compound of formula (I) in mice was studied, and its pharmacokinetic characteristics were evaluated.
Sixteen healthy adult female Balb/c mice were divided into four groups according to the principle of similar body weight, with four mice in each group. The animals were purchased from Shanghai Lingchang BioTech Co., Ltd. of Shanghai SLAC Laboratory Animal Co., Ltd., and the animal production license number was SCXK (Shanghai) 2013-0018.
An appropriate amount of the sample was taken, 5% final volume of DMSO was added, and then 95% final volume of 20% HP-β-CD was added. The mixture was ultrasonically stirred to obtain a 0.5 mg/mL clear solution. After filtration, it was used for the intravenous administration. […]
The LC/MS/MS method was used to measure the content of the compound to be tested in the plasma after the intravenous and intragastric administration to the mice. The linear range of the method was 2.00-6000 nmol/L; the plasma samples were analyzed after the protein precipitation by acetonitrile treatment.

For data set [2], the target named is hERG potassium ion channel (Homo sapiens (Human), UniProt Q12809). Kind of data set: hERG potassium channel current, automatic patch-clamp QPatch, CHO-hERG cells. The settings on record: highest test concentration 40 μM. In kind it is cell-based. Here is the method:
The effect of the compound of formula (I) on the hERG potassium channel current was investigated by adopting CHO (Chinese Hamster ovary) cell stably expressing the hERG potassium ion channel and using the fully automatic patch-clamp QPatch technology.
CHO-hERG cells were cultured in a 175 cm^2 culture flask. After the cell density increased to 60-80%, the culture medium was removed, the cells were washed once with 7 mL PBS, and then 3 mL Detachin was added for digestion.
After the digestion was complete, 7 mL of culture medium was added for neutralization, and then the mixture was centrifuged. The supernatant was removed, and then 5 mL of culture medium was added for resuspension to ensure that the cell density was 2-5×10^6/mL. […]
The single-cell high-impedance sealing and the whole-cell mode formation process were all automatically completed by the Qpatch instrument. […] The data were recorded for 2 minutes, then extracellular fluid was given, and then the data were recorded for 5 minutes. […] The experimental data were analyzed by XLFit software.
In general terms: hERG is a cardiac potassium channel; its block is linked to QT prolongation.

Data set [3] deals with Human prostatic cancer PC-3 cells. In words: In vivo pharmacodynamics, PC-3 subcutaneous xenograft tumor model. The settings on record: 50 mg/kg PO BID x 21 days. Here is the method:
The formulation method of the test substance was the same as in Table 6, and the animal grouping and the dosage regimen were the same as in Table 7.
• Species: mouse • Strain: BALB/c nude mouse • Week-age and weight: 6-8 weeks of age, 18-22 grams of body weight • Sex: male • Supplier: Shanghai Sippr-BK laboratory animal Co. Ltd.
Human prostatic cancer PC-3 cells were cultured in monolayer in vitro, and the culture conditions were F-12K culture medium (supplier: Gibco; article number: 21127-022; manufacturing batch number: 1868870) with 10% fetal bovine serum, 100 U/mL penicillin and 100 μg/mL streptomycin. The culture was performed at 37° C. in 5% CO2. Conventional digestion treatment with pancreatin-EDTA for passage was carried out twice a week. When the cells were in the exponential growth phase, the cells were harvested, counted, and inoculated.
0.1 mL of 10×10^6 PC-3 cells were subcutaneously inoculated into the right-back of each nude mouse. The grouping and administration was started when the average tumor volume reached 100-150 mm^3.
3.3 Tumor measurement, experiment indices, and statistical analysis were the same as MDA-MB-231 model.

A value given as a limit tells only on which side of the number the result lay.

In general, bioavailability refers to the share of a dose that reaches the circulation, judged against a reference dose that is usually intravenous. For orientation: IC50 means the concentration needed to halve the response being measured. Lower therefore signals higher potency.

Chain of hERG potassium ion channel (Q12809 whole entry): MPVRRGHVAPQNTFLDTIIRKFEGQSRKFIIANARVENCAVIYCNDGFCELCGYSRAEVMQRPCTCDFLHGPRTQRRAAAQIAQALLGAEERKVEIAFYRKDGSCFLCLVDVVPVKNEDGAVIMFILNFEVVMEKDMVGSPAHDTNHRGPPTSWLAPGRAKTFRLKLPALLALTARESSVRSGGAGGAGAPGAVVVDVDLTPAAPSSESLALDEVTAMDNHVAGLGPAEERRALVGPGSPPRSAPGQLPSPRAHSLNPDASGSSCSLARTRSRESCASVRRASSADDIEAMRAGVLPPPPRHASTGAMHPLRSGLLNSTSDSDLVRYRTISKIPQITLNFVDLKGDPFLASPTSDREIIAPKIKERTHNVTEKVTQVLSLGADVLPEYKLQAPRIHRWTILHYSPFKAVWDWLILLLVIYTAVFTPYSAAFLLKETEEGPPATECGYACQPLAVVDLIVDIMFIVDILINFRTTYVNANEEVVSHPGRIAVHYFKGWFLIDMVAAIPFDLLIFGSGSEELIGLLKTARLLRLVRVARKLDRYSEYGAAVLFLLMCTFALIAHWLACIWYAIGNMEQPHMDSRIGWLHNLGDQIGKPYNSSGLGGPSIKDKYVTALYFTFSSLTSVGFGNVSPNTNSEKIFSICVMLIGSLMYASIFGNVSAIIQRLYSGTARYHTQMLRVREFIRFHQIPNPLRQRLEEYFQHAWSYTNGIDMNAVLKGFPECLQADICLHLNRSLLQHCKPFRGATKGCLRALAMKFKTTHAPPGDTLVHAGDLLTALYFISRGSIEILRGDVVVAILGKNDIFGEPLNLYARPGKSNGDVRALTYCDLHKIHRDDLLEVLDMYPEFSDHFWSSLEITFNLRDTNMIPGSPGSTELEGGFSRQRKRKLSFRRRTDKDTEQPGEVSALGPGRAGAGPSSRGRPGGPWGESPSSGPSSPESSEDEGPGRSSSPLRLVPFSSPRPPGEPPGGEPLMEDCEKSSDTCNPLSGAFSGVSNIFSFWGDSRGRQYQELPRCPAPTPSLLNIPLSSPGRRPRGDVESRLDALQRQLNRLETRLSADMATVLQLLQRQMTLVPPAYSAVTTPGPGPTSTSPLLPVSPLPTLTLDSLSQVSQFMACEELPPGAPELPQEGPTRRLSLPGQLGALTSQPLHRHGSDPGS

Consider `Cc1sc2c(c1C)C(c1ccc(Cl)cc1)=N[C@@H](CC(=O)Nc1ccc3c(c1)COC3=O)c1nnc(C)n1-2` [Compound of formula (I)], for which the bioavailability in data set [1] came to 37.5%. Moreover, in data set [2], the half-maximal inhibitory concentration (IC50) was above 40 µM. Moreover, the tolerability entry in data set [3] is reported as “well tolerated”.
